20 compounds from PubChem BioAssay AID248 (DTP/NCI, 2004) can be followed below.

Values joined by “and” are separate entries in the source; they are usually repeats but may differ in a detail not shown here. Equal entries are not always repeated. Inconclusive results and toxic doses are left out.

The experiment deals with L1210 leukemia ip in BDF1 mice, survival T/C. The experiment is described as follows: NCI In Vivo Anticancer Drug Screen. Data for tumor model L1210 Leukemia (intraperitoneal) in B6D2F1 (BDF1) mice. To be noted: endpoint: mean survival time, higher = longer survival. The essentials:
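Tumor was transplanted into mice, which were then dosed with test compound or vehicle alone. Survival was recorded for each group, and the treated figure was expressed relative to the control figure.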

[1] abbreviates: dose: 100.0 mg/kg/injection, schedule: Q01DX009 (ip), vehicle: Klucel (hydroxypropylcellulose) (HPC).
Setting [2] is: dose: 200.0 mg/kg/injection, schedule: Q01DX009 (ip), vehicle: Klucel (hydroxypropylcellulose) (HPC).
Where [3] appears, read: dose: 400.0 mg/kg/injection, schedule: Q01DX009 (ip), vehicle: Klucel (hydroxypropylcellulose) (HPC).
Where [4] appears, read: dose: 100.0 mg/kg/injection, schedule: Q01DX009 (ip), vehicle: saline.
[5] abbreviates: dose: 200.0 mg/kg/injection, schedule: Q01DX009 (ip), vehicle: saline.
The mark [6] stands for this setting: dose: 50.0 mg/kg/injection, schedule: Q01DX009 (ip), vehicle: Klucel (hydroxypropylcellulose) (HPC).
The mark [7] stands for this setting: dose: 100.0 mg/kg/injection, schedule: Q01DX001 (ip), vehicle: saline.
The mark [8] stands for this setting: dose: 200.0 mg/kg/injection, schedule: Q01DX001 (ip), vehicle: saline.
The mark [9] stands for this setting: dose: 400.0 mg/kg/injection, schedule: Q01DX001 (ip), vehicle: saline.
Where [10] appears, read: dose: 100.0 mg/kg/injection, schedule: Q01DX001 (ip), vehicle: Klucel (hydroxypropylcellulose) (HPC).
The mark [11] stands for this setting: dose: 100.0 mg/kg/injection, schedule: Q04DX003 (ip), vehicle: Klucel (hydroxypropylcellulose) (HPC).
The mark [12] stands for this setting: dose: 200.0 mg/kg/injection, schedule: Q01DX001 (ip), vehicle: Klucel (hydroxypropylcellulose) (HPC).
The mark [13] stands for this setting: dose: 200.0 mg/kg/injection, schedule: Q04DX003 (ip), vehicle: Klucel (hydroxypropylcellulose) (HPC).
[14] abbreviates: dose: 400.0 mg/kg/injection, schedule: Q01DX001 (ip), vehicle: Klucel (hydroxypropylcellulose) (HPC).
Setting [15] is: dose: 400.0 mg/kg/injection, schedule: Q04DX003 (ip), vehicle: Klucel (hydroxypropylcellulose) (HPC).
[16] abbreviates: dose: 100.0 mg/kg/injection, schedule: Q01DX009 (ip), vehicle: saline with Tween-80.
Setting [17] is: dose: 12.5 mg/kg/injection, schedule: Q01DX009 (ip), vehicle: Klucel (hydroxypropylcellulose) (HPC).
Setting [18] is: dose: 25.0 mg/kg/injection, schedule: Q01DX009 (ip), vehicle: Klucel (hydroxypropylcellulose) (HPC).

In the case of `Clc1ccccc1C1OC1c1ccccc1Cl` (configuration not stated), the T/C was 105 % of control under setting [1]; 98 % of control (dose: 100.0 mg/kg/injection, schedule: Q04DX002 (ip), vehicle: Klucel (hydroxypropylcellulose) (HPC)); 102 % of control under setting [2]; 91 % of control (dose: 200.0 mg/kg/injection, schedule: Q04DX002 (ip), vehicle: Klucel (hydroxypropylcellulose) (HPC)); 94 % of control under setting [3]; 102 % of control (dose: 400.0 mg/kg/injection, schedule: Q04DX002 (ip), vehicle: Klucel (hydroxypropylcellulose) (HPC)).

Regarding `CC(=O)OCC[N+](C)(C)CCCCC[N+](C)(C)CCOC(C)=O`, the T/C reads like this: under setting [4], 100 % of control; (dose: 100.0 mg/kg/injection, schedule: Q04DX003 (ip), vehicle: saline) 95 % of control; under setting [5], 113 % of control; (dose: 200.0 mg/kg/injection, schedule: Q04DX003 (ip), vehicle: saline) 102 % of control; (dose: 400.0 mg/kg/injection, schedule: Q04DX003 (ip), vehicle: saline) 88 % of control.

As to `Nc1nc(Cl)nc(C(Cl)(Cl)Cl)c1Cl` (tested in a mixture with another compound), the T/C by setting is: under setting [6], 94 % of control; under setting [1], 87 % of control; under setting [2], 97 % of control.

For `O=c1[nH]cc(/C=N\Nc2ccccc2)c(=O)[nH]1`, the T/C is, setting by setting: (dose: 50.0 mg/kg/injection, schedule: Q01DX001 (ip), vehicle: saline) 97 % of control; under setting [7], 101 % of control; under setting [8], 101 % of control; under setting [9], 101 % of control.

As to `COc1c(O)cc2oc3cc(O)c(CC=C(C)C)c(O)c3c(=O)c2c1CC=C(C)C`, the T/C is 97 % of control under setting [10]; 96 % of control under setting [1]; 105 % of control under setting [11]; 97 % of control under setting [12]; 105 % of control under setting [13]; 98 % of control under setting [14]. Under setting [15], the T/C was 100 % of control.

For `CSc1nc(N(C)C)c2[nH]c(C)nc2n1`, the T/C under setting [7] was 87 % of control and the T/C under setting [8] is 101 % of control.

Regarding `O=c1c(C(Cl)Cl)nc2ccccc2n1O`, the T/C under setting [10] was 95 % of control, the T/C under setting [12] was 98 % of control and the T/C under setting [14] was 101 % of control.

Regarding `Nc1nc(N)c2nc(CNCCc3ccccc3)cnc2n1`, the T/C was 100 % of control (dose: 20.0 mg/kg/injection, schedule: Q01DX009 (ip), vehicle: Klucel (hydroxypropylcellulose) (HPC)) and 102 % of control (dose: 40.0 mg/kg/injection, schedule: Q01DX009 (ip), vehicle: Klucel (hydroxypropylcellulose) (HPC)).

On to `O=C1SC(c2ccccc2)(c2ccccc2)c2cscc21`, for which the T/C reads like this: (dose: 50.0 mg/kg/injection, schedule: Q01DX009 (ip), vehicle: saline with Tween-80) 86 % of control; under setting [16], 86 % of control.

Take `CC(=O)Oc1c(OC(C)=O)c(C=O)c2c(OC(C)=O)c(-c3c(C)cc4c(C(C)C)c(OC(C)=O)c(OC(C)=O)c(C=O)c4c3OC(C)=O)c(C)cc2c1C(C)C`: the T/C runs as follows: (dose: 6.25 mg/kg/injection, schedule: Q01DX009 (ip), vehicle: Klucel (hydroxypropylcellulose) (HPC)) 102 % of control; under setting [17], 97 % of control; under setting [18], 100 % of control and 105 % of control; (dose: 25.0 mg/kg/injection, schedule: Q04DX003 (ip), vehicle: Klucel (hydroxypropylcellulose) (HPC)) 93 % of control; (dose: 50.0 mg/kg/injection, schedule: Q04DX003 (ip), vehicle: Klucel (hydroxypropylcellulose) (HPC)) 90 % of control; under setting [11], 95 % of control and 104 % of control.

On to `CCC1(CC)COC(C)(C(=O)O)OC1`, for which the T/C was 96 % of control and 95 % of control under setting [16]; 89 % of control and 101 % of control (dose: 200.0 mg/kg/injection, schedule: Q01DX009 (ip), vehicle: saline with Tween-80); 90 % of control (dose: 400.0 mg/kg/injection, schedule: Q01DX009 (ip), vehicle: saline with Tween-80).

Turning to `CCn1c(C)nc2cc(Cl)c([N+](=O)[O-])cc21`, the T/C is, setting by setting: under setting [7], 91 % of control; (dose: 100.0 mg/kg/injection, schedule: Q04DX003 (ip), vehicle: acetone) 93 % of control; under setting [8], 110 % of control; (dose: 200.0 mg/kg/injection, schedule: Q04DX003 (ip), vehicle: acetone) 93 % of control; under setting [9], 96 % of control; (dose: 400.0 mg/kg/injection, schedule: Q04DX003 (ip), vehicle: acetone) 96 % of control.

As to `O=C(O)C(=O)/C=C/c1cccc([N+](=O)[O-])c1`, the T/C runs as follows: under setting [7], 96 % of control; under setting [4], 106 % of control; under setting [8], 96 % of control; under setting [5], 95 % of control; under setting [9], 102 % of control.

In the case of `COc1cc(N)c2c(c1N)C(=O)c1ccccc1C2=O`, the T/C reads like this: under setting [1], 96 % of control; under setting [11], 98 % of control; under setting [2], 104 % of control; under setting [13], 90 % of control; under setting [3], 100 % of control; under setting [15], 100 % of control.

Turning to `O=C(O)c1c(Br)c(Br)c(Br)c(Br)c1C(=O)Nc1ccc(Br)cc1`, the T/C by setting is: under setting [1], 104 % of control; under setting [2], 101 % of control.

With `NC(N)=NN=C(CO)CO`, the T/C (dose: 1.0 mg/kg/injection, schedule: Q01DX Z (ip), vehicle: methylcellulose (MC)) was 103 % of control; the T/C (dose: 2.0 mg/kg/injection, schedule: Q01DX Z (ip), vehicle: methylcellulose (MC)) was 111 % of control; the T/C (dose: 4.0 mg/kg/injection, schedule: Q01DX Z (ip), vehicle: methylcellulose (MC)) was 109 % of control; the T/C (dose: 8.0 mg/kg/injection, schedule: Q01DX Z (ip), vehicle: methylcellulose (MC)) was 117 % of control; the T/C (dose: 15.0 mg/kg/injection, schedule: Q01DX Z (oral), vehicle: methylcellulose (MC)) is 89 % of control; the T/C (dose: 30.0 mg/kg/injection, schedule: Q01DX Z (ip), vehicle: methylcellulose (MC)) is 172 % of control. In addition, the T/C is, setting by setting: (dose: 30.0 mg/kg/injection, schedule: Q01DX Z (ip), vehicle: saline) 110 % of control; (dose: 30.0 mg/kg/injection, schedule: Q01DX Z (oral), vehicle: methylcellulose (MC)) 102 % of control; (dose: 60.0 mg/kg/injection, schedule: Q01DX Z (ip), vehicle: saline) 108 % of control; (dose: 60.0 mg/kg/injection, schedule: Q01DX Z (oral), vehicle: methylcellulose (MC)) 93 % of control; (dose: 120.0 mg/kg/injection, schedule: Q01DX Z (ip), vehicle: saline) 103 % of control; (dose: 120.0 mg/kg/injection, schedule: Q01DX Z (oral), vehicle: methylcellulose (MC)) 100 % of control. Also, the T/C (dose: 120.0 mg/kg/injection, schedule: Q01DX Z (oral), vehicle: saline) is 100 % of control; the T/C (dose: 240.0 mg/kg/injection, schedule: Q01DX Z (oral), vehicle: saline) is 100 % of control; the T/C (dose: 480.0 mg/kg/injection, schedule: Q01DX Z (oral), vehicle: saline) was 101 % of control; the T/C (dose: 960.0 mg/kg/injection, schedule: Q01DX Z (oral), vehicle: saline) was 101 % of control.

In the case of `S=P(c1ccccc1)(c1ccccc1)c1cccc2ccccc12`, the T/C was 100 % of control under setting [7], 94 % of control under setting [8] and 94 % of control under setting [9].

As for `CCN(CC)CCN(CC)C(=S)Nc1ccccc1`, the T/C under setting [17] is 117 % of control, the T/C under setting [18] was 109 % of control and the T/C under setting [6] was 102 % of control.

With `CN1CCC2CCCCC2C1Cc1ccc(CC2C3CCCCC3CCN2C)cc1` (configuration not stated), the T/C runs as follows: (dose: 2.5 mg/kg/injection, schedule: Q01DX001 (ip), vehicle: carboxymethylcellulose (CMC)) 96 % of control; (dose: 5.0 mg/kg/injection, schedule: Q01DX001 (ip), vehicle: carboxymethylcellulose (CMC)) 96 % of control.

As for `COC(=O)/C=C/N1C(=O)c2ccccc2C1=O`, the T/C under setting [1] is 96 % of control; the T/C under setting [11] was 102 % of control; the T/C under setting [2] was 98 % of control; the T/C under setting [13] is 92 % of control; the T/C under setting [3] was 98 % of control; the T/C under setting [15] was 96 % of control.
